Results as given in patent US20260097091A1, “ADMINISTRATION OF GLUTATHIONE TRISULFIDE TO AMELIORATE PERIPHERAL NEUROPATHY” (The General Hospital Corporation, priority 2022, published 2026).

What was measured:
[1] = water solubility of PTN-SSS; assay type: physicochemical
Text: (§1) PTN-SSS was synthesized and provided by Kyowa Hakko Bio Co., Ltd. The purity of PTN-SSS is 96.3%, and PTN-SSS is highly water soluble (>50 g/L). PTN-SSS and PTN (Toronto Research Chemicals, Toronto, ON, Canada) were suspended in distilled water. PTN-SSS is stable in solution at pH 4.0-9.0 at room temperature for at least 4 days. In the PTN-SSS study, distilled water was used as the vehicle alone.

[2] = stability of PTN-SSS in solution; assay type: physicochemical; settings: pH 4.0-9.0 at room temperature
Text: as §1

primary DRG neurons = primary DRG neurons exposed to paclitaxel: Sholl analysis and axonal mitochondria (NF200, MitoTracker); assay type: cell-based, mice; settings: 500 nM PTNSSS with 100 nM paclitaxel for one hour
Procedure: Primary DRG neurons were prepared from 8 to 10-week old mice as described previously. Briefly, lumber DRG (L1 to L6) were isolated from mice and centrifuged at 176×g (1000 rpm) for 3 minutes. After aspirating the solution, DRG were incubated with Dispase-II Solution (Sigma-Aldrich, Cat No. SCM133) and collagenase type II (Worthington, Cat No. LS004176) for 70 minutes and with 0.25% trypsin for 5 minutes. Subsequently triturated by frame polished glass pipet, neurons were seeded on a 12-well plate with 15 mm coverslip. Cells were incubated in Neurobasal A-medium with 2% B27 supplement (Gibco, Cat No. 10889038), 1% penicillin/streptomycin, 1% Glutamax (Gibco, Cat No. 35050061), and nerve growth factor (Sigma Aldrich, Cat No. N6009) for 24 hours. After 24 hours, they were exposed to 100 nM of paclitaxel with or without 500 nM of GSSSG or PTNSSS for one hour and 50 nM of MitoTracker (Invitrogen, Cat No. M22426) for 30 minutes. After fixing by 4% paraformaldehyde for 10 minutes at room temperature, cells were immersed in 0.2% Triton X-100 in PBS for 7 minutes and washed by PBS. They were incubated with anti-NF200 antibody (1:400, mouse, Sigma-Aldrich, Cat No. N0142) overnight at 4° C. and with the secondary antibody (1:1000, donkey anti-mouse, Abcam, Cat No. ab150105) for one hour at room temperature. After being covered with fluoroshield mounting medium with DAPI (Sigma-Aldrich, Cat No. F6057), 9-10 cells per group (3 mice per group) were imaged on confocal microscopy (ZEISS LSM 800, Carl Zeiss, Thornwood, NY) using a 63× oil immersion objectives lens with 1,024×1,024 pixels image size.
Effects of PTNSSS and GSSSG on axonal integrity were examined in cultured murine primary DRG neurons incubated with paclitaxel. […] Morphology of neurons, the number, length, and branching of neurites, was analyzed by Sholl analysis implemented in ImageJ [30]. Sholl analysis draws equally spaced circles from the soma and counts the number of intersections between neurites and circles to quantify neuronal morphology (FIG. 8C).

[3] = tissue distribution of orally administered ^34S-labeled GSSSG by LC-MS/MS; assay type: in vivo, mice; settings: 2 hours after oral 50 mg/kg
Procedure: To determine the tissue distribution of orally-administered GSSSG, ^34S-labelled GSSSG was administered by gavage to each of four mice. ^34S-labelled GSSSG was synthesized and provided by Kyowa Hakko Bio CO., LTD. Two hours after a single dose of ^34S-GSSSG, DRG, lumber spinal cord, brain, liver, and plasma were obtained and snap frozen for later analysis.
We examined whether administrated GSSSG via oral gavage reaches peripheral nervous system using liquid chromatography with tandem mass spectrometry (LC-MS/MS). Fifty mg/kg of ^34S-labeled GSSSG (in which the middle sulfur, that is a sulfane sulfur, was replaced to ^34S; G-^32S-^34S-^32S-G) was orally administered to mice. Two hours after administration, plasma and tissue from liver, brain, lumbar spinal cord, and lumbar DRG (L1 to L6) were collected and immediately frozen at −80° C. Tissues were homogenized with 5 mM of β-(4-hydroxyphenyl)ethyl iodoacetamide (HPE-IAM) (Santa Cruz, Cat No. SC-473766) and incubated for 20 minutes at 37° C. to promote HPE-IAM reaction that stabilizes persulfide residues. Proteins were removed by centrifugation at 15,000 g for 10 minutes at 4° C., and total protein concentration was measured by BCA assay. The supernatant was diluted by 0.1% formic acid for LC-MS/MS analysis. The amount of ^34S-labeled GSSSG was quantified in selective reaction monitoring (SRM) with precursor ion (647.14 m/z), product ion (389.1 m/z), and HCD (21 v) and normalized by protein concentration. The ratio of ^34S-labeled reactive sulfur species to endogenous (^32S) reactive sulfur species (GSSH, CysSSH, and CysSSSCys) were also calculated from their peak area measured by Dionex UltiMate 3000 RS UPLC-Orbitrap Exploris 480 mass spectrometer (Thermo Scientific Scientific, Waltham, MA, USA). In brief, samples were subjected to the UPLC system with a Hypersil Gold C-18 (100×2.1 mm, 3.0 μm, Thermo Fisher Scientific) column and they were eluted by using a linear methanol gradient of the mobile phase (0-90%, 15 minutes) in the presence of 0.1% formic acid at a flow rate of 0.2 ml/minutes at 40 degrees. The raw data were obtained by Compound Discoverer software 3.3. Molecular weight of reactive sulfur species combined with HPE-IAM were reported in previous studies.

Structure (SMILES) | water solubility [1] [mg/mL] | stable in solution [2] | axonal length (Sholl analysis) (primary DRG neurons) | ratio of ^34S-labelled CysSSH to endogenous CysSSH ([3]; all 4 tissues) | ratio of ^34S-labelled CysSSSCys to endogenous CysSSSCys ([3]; all 4 tissues) | ratio of ^34S-labelled GSSH to endogenous GSSH ([3]; all 4 tissues (lumber DRG, lumber spinal cord, brain, liver)) | average concentration of ^34S-labelled GSSSG in brain ([3]; mice) [pmol/mg protein] | average concentration of ^34S-labelled GSSSG in liver ([3]; mice) [pmol/mg protein] | average concentration of ^34S-labelled GSSSG in lumber DRG ([3]; mice) [pmol/mg protein] | average concentration of ^34S-labelled GSSSG in lumber spinal cord ([3]; mice) [pmol/mg protein]
CC(C)(CO)[C@@H](O)C(=O)NCCC(=O)NCCSSSCCNC(=O)CCNC(=O)[C@H](O)C(C)(C)CO [PTN-SSS, pantethine trisulfide] | > 50 | at least 4 days | prevented the axonal shortening induced by paclitaxel | – | – | – | – | – | – | –
N[C@@H](CCC(=O)N[C@@H](CS[34S]SC[C@H](NC(=O)CC[C@H](N)C(=O)O)C(=O)NCC(=O)O)C(=O)NCC(=O)O)C(=O)O [^34S-labelled GSSSG] | – | – | – | more than 10 fold | more than 10 fold | more than 10 fold | 142 | 158 | 415 | 518
